Reference: patent publication US20240325353A1, “COMPOUND FOR TREATMENT OF COGNITIVE DISORDERS” (Syndesi Therapeutics SA, priority 2021, published 2024)
Values joined by “and” are separate entries in the source; they are usually repeats but may differ in a detail not shown here. Equal values may be shown once.

Experiments:
SV2A [1] = target: SV2A (Homo sapiens, UniProt Q7L0J3); assay: SV2A binding in vitro, displacement of levetiracetam
[2] = rodent preclinical cognitive deficit models; format: in vivo; conditions: range of rodent preclinical cognitive deficit models
[3] = treatment-emergent adverse events, multiple dose study in young male subjects; format: in vivo, human
Description: Details on the adverse events occurring in the study is provided below. As may be seen the doses of interest were safe and well tolerated.

[4] = anti-convulsant activity in vivo
[5] = repeat dose pharmacokinetics in humans; format: in vivo, human; conditions: once daily repeat dosing, all doses
SV2A [6] = target: T1, SV2A (Rattus norvegicus, UniProt Q02563); assay: in vivo SV2A receptor occupancy in rats; conditions: ip, 0.1 mg/kg i.p., 60 minutes post administration
T1 construct: from tissue; host or cells: brain of living rats

[7] = target: T2, synaptic vesicle glycoprotein 2A (Homo sapiens, UniProt Q7L0J3); assay: [11C]-UCB-J PET receptor occupancy after single oral dose, healthy male subjects, with PK/occupancy model; format: in vivo; conditions: for receptor occupancy: individual subjects
T2 construct: from tissue; host or cells: brain of living healthy male subjects (PET)
Experimental: All images were acquired using the PET/MR Scanner: GE Signa TOF PET-MR 3 Tesla with software version MP26. As gamma counter, a 1480 Wizard well type gamma counter met 3-inch NaI crystal was used.
[^11C]-UCB-J is a PET tracer for imaging the synaptic vesicle glycoprotein 2A in the human brain. [^11C]-UCB-J is (4R)-1-{[3-(^11C)Methylpyridin-4-yl]methyl}-4-(3,4,5-trifluorophenyl)pyrrolidin-2-one.
Participants arrived approximately 90 minutes prior to the scheduled scan. This allowed the positioning of all necessary peripheral catheters before the start of the PET scan. Prior to PET imaging, at the PET centre, an indwelling venous cannula was inserted into an antecubital vein of the forearm to inject the radioligand. When required, an indwelling arterial catheter was placed in the radial artery of the opposite arm (if not feasible, can be in same arm) by a trained physician after numbing the area with a local anaesthetic prior to placement to withdraw blood for the measurement of the PET input function. On each PET scan day, no more than 3 skin penetrations per arm and one arterial penetration per arm were permitted before trying in the other arm. The venous catheter was used for the injection of [^11C]-UCB-J. [^11C]UCB-J was administered as an i.v. bolus into the antecubital vein over approximately 20 seconds. The tracer volume was between 6 ml and 12 ml. With the pump system configured to inject 0.33 ml per second, tracer injection time varied between 18 sec and 36 sec. The arterial catheter was used for collection of arterial blood samples and no participant received more than two arterial catheterizations during their participation in the study. An arterial catheter was maintained for up to 2 days depending on evaluation by medical staff. In case two arterial catheters were placed during the study conduct, then placement in alternate wrists was done. If the medical staff decided to remove an arterial catheter at any given time, a new one was placed for a next scan taking into account that no more than two arterial catheterizations per participant were allowed. Participants were asked to void their bladder before the start of each PET scan. Participants were positioned in the PET scanner so that scans were acquired in 3D list-mode in one bed position and the entire brain volume was included in the field of view. At screening and simultaneous with the PET acquisition, both a 3D volumetric T1-weighted BRAVO sequence (plane: sagittal; TE: 3.2 ms; TR: 8.5 ms; TI: 450 ms; Flip Angle: 12; Receiver Bandwidth: 31.2; NEX: 1; voxelsize: 1×1×1 mm) and 3D T2-weighted CUBE FLAIR sequence (plane: sagittal direction; TE: 137 ms; #echoes: 1; echo train length: 190; TR: 8500 ms; […]; Receiver Bandwidth: 31.25; NEX: 1; voxelsize: 1.2×1.3×1.4 mm) were acquired to detect possible structural abnormalities, and serve as an anatomical reference to define ROIs when co-registered with the PET scan. To correct for attenuation, a Zero-Echo Time (ZTE) scan was taken to allow the generation of a MR based attenuation map. At intermediate time points during acquisition, the ZTE sequence was repeated to have additional data for adjusting the MR based attenuation map in case of severe head motion. Next to anatomical MR sequences, eASL and rs-fMRI data were acquired simultaneously with the PET data, to determine regional cerebral blood flow and regional interactions in the brain in a resting or task-negative state. At least one eASL and one rs-fMRI sequence were performed during the PET acquisition but these sequences were repeated if time allowed. The total duration of the emission scan was 90 minutes. PET data will be rebinned in time frames according to the following scheme: • 6×15s-3×30s-3×60s-2×90s-2×3 min-9×5 min-3×10 min […]

T2 sequence (Q7L0J3 whole entry): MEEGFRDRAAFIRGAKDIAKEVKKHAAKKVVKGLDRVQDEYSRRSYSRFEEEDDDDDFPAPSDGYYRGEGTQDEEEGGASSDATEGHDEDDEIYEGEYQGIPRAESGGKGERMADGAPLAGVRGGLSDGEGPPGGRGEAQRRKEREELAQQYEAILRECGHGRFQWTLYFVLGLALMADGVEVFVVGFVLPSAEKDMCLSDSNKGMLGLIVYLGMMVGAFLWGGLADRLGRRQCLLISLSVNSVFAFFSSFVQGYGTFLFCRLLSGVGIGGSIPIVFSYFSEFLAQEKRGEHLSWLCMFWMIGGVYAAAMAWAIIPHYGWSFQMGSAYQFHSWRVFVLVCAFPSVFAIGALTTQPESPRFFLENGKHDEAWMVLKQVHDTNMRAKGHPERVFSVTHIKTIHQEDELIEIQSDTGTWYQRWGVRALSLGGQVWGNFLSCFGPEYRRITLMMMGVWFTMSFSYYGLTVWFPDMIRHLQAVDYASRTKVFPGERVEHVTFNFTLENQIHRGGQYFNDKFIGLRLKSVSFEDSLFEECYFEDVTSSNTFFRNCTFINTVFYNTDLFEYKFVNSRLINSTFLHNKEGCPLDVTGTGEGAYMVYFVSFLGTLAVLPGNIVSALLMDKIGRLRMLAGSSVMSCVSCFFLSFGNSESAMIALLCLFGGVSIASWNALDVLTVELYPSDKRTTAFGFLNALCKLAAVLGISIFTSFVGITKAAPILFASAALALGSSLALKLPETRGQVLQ
Sequence of SV2A (Homo sapiens, UniProt Q7L0J3) (Q7L0J3 whole entry, species assumed): as the sequence (Q7L0J3 whole entry) above
T1 sequence (Q02563 whole entry): as the sequence (Q7L0J3 whole entry) above, with D53E, S62A, T71A, E144D, A154T, G440S, S482A, I572V, M634L counted along it

Structure (SMILES): O=C1C[C@H](c2cc(F)c(F)c(F)c2)CN1Cn1ncnc1Cl [compound of example 1, (4R)-1-[(5-chloro-1H-1,2,4-triazol-1-yl)methyl]-4-(3,4,5-trifluorophenyl)pyrrolidin-2-one]
- affinity of binding to SV2A (levetiracetam site) (SV2A [1]): high affinity
- displacement of the binding of levetiracetam to SV2A (SV2A [1]; in vitro): competitively displaces
- pro-cognitive effects [2]: possesses pro-cognitive effects
- At least 1 TEAE definitively related to treatment, n (%) ([3]; 5 mg, N = 6): 0 n (%)
- At least 1 TEAE possibly related to treatment, n (%) ([3]; 5 mg, N = 6): 0 n (%)
- At least 1 TEAE probably related to treatment, n (%) ([3]; 5 mg, N = 6): 0 n (%)
- At least one TEAE, n (%) ([3]; 5 mg, N = 6): 0 n (%)
- At least 1 TEAE definitively related to treatment, n (%) ([3]; 10 mg, N = 6): 0 n (%)
- At least 1 TEAE possibly related to treatment, n (%) ([3]; 10 mg, N = 6): 0 n (%)
- At least 1 TEAE probably related to treatment, n (%) ([3]; 10 mg, N = 6): 1 (16.7) n (%)
- At least one TEAE, n (%) ([3]; 10 mg, N = 6): 2 (33.3) n (%)
- At least 1 TEAE definitively related to treatment, n (%) ([3]; 20 mg, N = 6): 0 n (%)
- At least 1 TEAE possibly related to treatment, n (%) ([3]; 20 mg, N = 6): 4 (66.7) n (%)
- At least 1 TEAE probably related to treatment, n (%) ([3]; 20 mg, N = 6): 0 n (%)
- At least one TEAE, n (%) ([3]; 20 mg, N = 6): 4 (66.7) n (%)
- At least 1 TEAE definitively related to treatment, n (%) ([3]; all doses, N = 18): 0 n (%)
- At least 1 TEAE possibly related to treatment, n (%) ([3]; all doses, N = 18): 4 (22.2) n (%)
- At least 1 TEAE probably related to treatment, n (%) ([3]; all doses, N = 18): 1 (5.6) n (%)
- At least one TEAE, n (%) ([3]; all doses, N = 18): 6 (33.3) n (%)
- anti-convulsant activity [4]: without anti-convulsant activity
- effect on the anti-convulsant effect of levetiracetam [4]: competitively inhibits
- time to reach steady state [5]: 8 to 10 days
- receptor occupancy at 0.1 mg/kg (SV2A [6]): 20 to 50%
- receptor occupancy ([7]; 1 mg single oral dose, 22 h): below level of detection
- receptor occupancy ([7]; 1 mg single oral dose, tmax (2 h)): 25% and 21%
- receptor occupancy ([7]; 2 mg single oral dose, 22 h): 19% and 20%
- receptor occupancy ([7]; 2 mg single oral dose, tmax (2 h)): 42% and 39%
- receptor occupancy ([7]; 10 mg single oral dose, 22 h): 46% and 50%
- receptor occupancy ([7]; 10 mg single oral dose, tmax (2 h)): 68% and 69%
- receptor occupancy ([7]; 20 mg single oral dose, 26 h): 56% and 66%
- receptor occupancy ([7]; 20 mg single oral dose, tmax (2 h)): 76%
- emax of PK/occupancy model (mean) ([7]; humans): 84.9
- EC50 ([7]; humans, plasma concentration, read-out: EC50, plasma concentration vs SV2A occupancy (PK/occupancy model, mean) (converted)): 75.3 nM
